According to PMC6930223 (Scientific Reports, 2019):

Target: hERG1a/1b current (Homo sapiens, UniProt Q12809)
Method: All working solutions were sterile-filtered, stored at −20 °C and thawed to room temperature before use.
Prior to electrophysiology study, the HEK293-hERG1a/1b cells were first grown in complete medium without selection antibiotics for 6 days. Approximately 5.0 × 10^5 cells were then plated onto an uncoated 96-mm cell culture dish for a maximum of 3 days. […] The cell suspension was then transferred into a 15-ml polypropylene tube and centrifuged at 100 × g for 3 min. Subsequently, the cell pellet was resuspended in extracellular solution to obtain a final density of 2 × 10^6–3 × 10^6 cells/ml and incubated on ice for 20 min to allow cell recovery. The electrophysiology studies were performed using NPC®-1 chips (Nanion Technologies, Germany) and Port-a-Patch system (Nanion Technologies, Germany) following manufacturer’s instructions, within the next 2 h. For characterization and determination of the hERG1a/1b current inhibition, a series of voltage protocols were applied as published previously.
The hERG1a/1b current was recorded in cells achieving whole-cell configuration. Briefly, a single cell was first held at −80 mV, the theoretical cardiac resting membrane potential, on the aperture of the NPC-1 chip (Nanion Technologies, Germany). To characterize the I-V relationship, the cell was depolarized to test potentials ranging from −60 mV to +50 mV for 4 s in […], followed by a 5-s step to −50 mV before returning to −80mV.
To determine the pharmacological effects of the HEK293-hERG1a/1b cells, the cells were perfused with test compound solutions using an external perfusion system. […] The mean of six successive Itail was recorded for each test concentration. Four independent experiments were conducted to derive the dose-response curve.

CNCCC(Oc1ccc(C(F)(F)F)cc1)c1ccccc1 (stereo not shown) [fluoxetine, reference compound]
Hill coefficient (h): 1.19
